Results published in PMC5704959 (ACS chemical biology, 2016).

Target: human Siglec-9 (hSiglec-9-Fc, hSiglec-9) (Homo sapiens, UniProt Q9Y336)
Assay: glycan microarray, fluorescence
Format: binding
Settings: glycan immobilised on epoxide slide; PBS pH 7.4, RT, 2 h

human Siglec-9 (hSiglec-9-Fc, hSiglec-9), sequence (Q9Y336 18-348 limits assumed): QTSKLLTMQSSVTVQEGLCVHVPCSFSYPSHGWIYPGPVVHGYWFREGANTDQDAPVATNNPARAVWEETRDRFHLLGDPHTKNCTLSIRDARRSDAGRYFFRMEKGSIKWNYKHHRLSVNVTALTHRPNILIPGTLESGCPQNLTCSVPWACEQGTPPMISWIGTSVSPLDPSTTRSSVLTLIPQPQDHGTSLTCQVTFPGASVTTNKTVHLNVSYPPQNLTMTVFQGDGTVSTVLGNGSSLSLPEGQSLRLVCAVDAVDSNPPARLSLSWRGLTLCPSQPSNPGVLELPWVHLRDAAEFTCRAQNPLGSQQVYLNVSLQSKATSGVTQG

Compound	glycan microarray, fluorescence (RFU)
CC(=O)N[C@H]1[C@H]([C@H](O)[C@H](O)COC(C)=O)O[C@@](O[C@H]2[C@@H](O)[C@@H](CO)O[C@@H](O[C@H]3[C@H](O)[C@@H](O)[C@H](OCCCN)O[C@@H]3CO)[C@@H]2O)(C(=O)O)C[C@@H]1O [Neu5,9Ac2α3Galβ4GlcβProNH2]	observable binding to both Neu5Ac9NAc (black column) and Neu5,9Ac2 (grey column)-containing glycans
CC(=O)N[C@H]1[C@H]([C@H](O)[C@H](O)CO)O[C@@](O[C@H]2[C@@H](O)[C@@H](CO)O[C@@H](O[C@H]3[C@H](O)[C@@H](O)[C@H](OCCCN)O[C@@H]3CO)[C@@H]2O)(C(=O)O)C[C@@H]1O [Neu5Acα3Galβ4GlcβProNH2]	hSiglec-9 prefers binding to Neu5Ac-glycan without 9-modification at sialic acid
